Test results from publication PMC12645083, “Microwave‐Enhanced Synthesis of 2‐Styrylquinoline‐4‐Carboxamides With Promising Anti‐Lymphoma Activity” (Archiv Der Pharmazie, 2025).

Legend:
[1] = system: panel of five tumor cell lines (HD-MB03, RPMI-8402, SU-DHL-8, A549, MDA-MB-231); experiment: Antiproliferative activity, range over the panel of five tumor cell lines; assay type: cell-based; settings: Homo sapiens; range over the active cell lines of the five-line panel; 72 h
Experimental: The synthesized quinoline derivatives 4a–z and 4aa–ah were evaluated in vitro for their antiproliferative activity against a panel of five tumor cell lines (HD‐MB03, medulloblastoma; RPMI‐8402, T‐lymphoblastic leukemia; SU‐DHL‐8, B lymphocyte, large cell lymphoma; A549, non‐small cell lung cancer; MDA‐MB‐231, triple‐negative breast cancer) (Table 2). […] Replacing the 4‐Cl group with a trifluoromethyl group (4ac) reduced antiproliferative activity.
(§1) To test the newly synthesized compounds, various human cell lines were employed. HD‐MB03 cells were purchased from DSMZ (Braunschweig, Germany), while A549, MDA‐MB‐231, RPMI‐8420, SU‐DHL‐8, TOLEDO, VL51, SU‐DHL‐1, SU‐DHL‐18, and KM‐H2 were obtained from ATCC (Manassas, VA, USA). Cells were cultured in DMEM (for MDA‐MB‐231 and A549) or RPMI‐1640 (for RPMI‐8420, SU‐DHL‐8, TOLEDO, VL51, SU‐DHL‐1, SU‐DHL‐18, KM‐H2, and HD‐MB03) media (Gibco, Milan, Italy). Both media were supplemented with 115 units/mL penicillin G (Gibco, Milan, Italy), 115 µg/mL streptomycin (Invitrogen, Milan, Italy), and 10% fetal bovine serum (Invitrogen, Milan, Italy). Peripheral blood mononuclear cells (PBMCs) were isolated from healthy donors as previously described. For cytotoxicity assays, PBMCs were resuspended at 5 × 10⁵ cells/mL in complete RPMI medium with or without 2.5 µg/mL phytohemagglutinin (PHA) (Irvine Scientific) to stimulate T‐cell activation and proliferation. All cell lines were maintained at 37°C in a humidified atmosphere containing 5% CO₂. All compounds were dissolved in DMSO at a 10 mM stock concentration. For dose–response assays, cells were seeded in 96‐well plates at densities optimized for each cell line: HD‐MB03 at 10,000 cells/well, A549 at 4000 cells/well, and MDA‐MB‐231 at 7000 cells/well. All other cell lines were seeded at 20,000 cells/well in a final volume of 100 µL per well. After 24 h, cells were treated with a 6‐point serial dilution of compounds starting from 10 µM, in triplicate for statistical analysis. Seventy‐2 h posttreatment, 10 µL of resazurin solution (100 µg/mL) was added to each well, and cells were incubated for an additional 3–6 h. Fluorescence was measured using a Spark 10 M microplate reader (Tecan Group Ltd., Männedorf, Switzerland) with excitation at 535 nm and emission at 600 nm. The IC₅₀ was defined as the concentration of compound required to inhibit cell proliferation by 50% compared to cells treated with the highest DMSO concentration.

HD-MB03 = experiment: In vitro antiproliferative activity, resazurin cell viability; assay type: cell-based; settings: Homo sapiens, medulloblastoma cells, 72 h of treatment, mean ± SEM, at least three experiments
Experimental: as §1
(§2) To test the newly synthesized compounds, various human cell lines were employed. HD-MB03 cells were purchased from DSMZ (Braunschweig, Germany), while A549, MDA-MB-231, RPMI-8420, SU-DHL-8, TOLEDO, VL51, SU-DHL-1, SU-DHL-18, and KM-H2 were obtained from ATCC (Manassas, VA, USA). Cells were cultured in DMEM (for MDA-MB-231 and A549) or RPMI-1640 (for RPMI-8420, SU-DHL-8, TOLEDO, VL51, SU-DHL-1, SU-DHL-18, KM-H2, and HD-MB03) media (Gibco, Milan, Italy). Both media were supplemented with 115 units/mL penicillin G (Gibco, Milan, Italy), 115 µg/mL streptomycin (Invitrogen, Milan, Italy), and 10% fetal bovine serum (Invitrogen, Milan, Italy). Peripheral blood mononuclear cells (PBMCs) were isolated from healthy donors as previously described. ^[1] For cytotoxicity assays, PBMCs were resuspended at 5 × 10⁵ cells/mL in complete RPMI medium with or without 2.5 µg/mL phytohemagglutinin (PHA) (Irvine Scientific) to stimulate T cell activation and proliferation. All cell lines were maintained at 37 °C in a humidified atmosphere containing 5% CO₂. All compounds were dissolved in DMSO at a 10 mM stock concentration. For dose–response assays, cells were seeded in 96-well plates at densities optimized for each cell line: HD-MB03 at 10,000 cells/well, A549 at 4,000 cells/well, and MDA-MB-231 at 7,000 cells/well. All other cell lines were seeded at 20,000 cells/well in a final volume of 100 µL per well. After 24 hours, cells were treated with a 6-point serial dilution of compounds starting from 10 µM, in triplicate for statistical analysis. Seventy-two hours post-treatment, 10 µL of resazurin solution (100 µg/mL) was added to each well, and cells were incubated for an additional 3–6 hours. Fluorescence was measured using a Spark 10M microplate reader (Tecan Group Ltd., Männedorf, Switzerland) with excitation at 535 nm and emission at 600 nm. […]

MDA-MB-231 = experiment: as above; assay type: cell-based; settings: Homo sapiens, triple-negative breast cancer, 72 h of treatment, mean ± SEM
Experimental: as §1, §2

SU-DHL-8 = experiment: as above; assay type: cell-based; settings: Homo sapiens, B lymphocyte, large cell lymphoma, 72 h of treatment, mean ± SEM
Experimental: as §1, §2

RPMI-8402 = experiment: as above; assay type: cell-based; settings: Homo sapiens, T-lymphoblastic leukemia cells, 72 h of treatment, mean ± SEM
Experimental: as §1, §2

A549 = experiment: as above; assay type: cell-based; settings: Homo sapiens, non-small cell lung cancer, 72 h of treatment, mean ± SEM
Experimental: as §1, §2

TMD8 (DLBCL) = settings: Figure 1; cited from earlier work
[2] = system: VL51 (splenic B-cell lymphoma); settings: Figure 1; cited from earlier work
Ly10 (DLBCL) = settings: Figure 1; cited from earlier work
Ly1 (DLBCL) = settings: Figure 1; cited from earlier work

IC50 [1] [µM]	SMILES	IC50 (HD-MB03) [µM]	IC50 (MDA-MB-231) [µM]	IC50 (SU-DHL-8) [µM]	IC50 (RPMI-8402) [µM]	IC50 (A549) [µM]	IC50 (TMD8 (DLBCL)) [µM]	IC50 [2] [µM]	IC50 (Ly10 (DLBCL)) [µM]	IC50 (Ly1 (DLBCL)) [µM]
3.2 to 8.97	O=C(Nc1ccc(C(F)(F)F)cc1)c1cc(/C=C/c2ccc(Cl)c(Cl)c2)nc2ccccc12 [4ab, (E)-2-(3,4-dichlorostyryl)-N-(4-(trifluoromethyl)phenyl)quinoline-4-carboxamide]	7.83 ± 0.98	> 10	6.54 ± 0.44	> 10	> 10				
3.2 to 8.97	O=C(Nc1ccc(C(F)(F)F)cc1)c1cc(/C=C/c2ccccc2)nc2ccccc12 [4h, (E)-2-styryl-N-(4-(trifluoromethyl)phenyl)quinoline-4-carboxamide]	> 10	> 10	7.09 ± 0.25	8.97 ± 0.75	> 10				
	Cc1cccc(/C=C/c2cc(C(=O)Nc3ccc([N+](=O)[O-])c(C(F)(F)F)c3)c3ccccc3n2)c1 [4u, (E)-2-(3-methylstyryl)-N-(4-nitro-3-(trifluoromethyl)phenyl)quinoline-4-carboxamide]	> 10	> 10	> 10	> 10	> 10				
	COc1ccc(/C=C/c2cc(C(=O)Nc3ccc([N+](=O)[O-])c(C(F)(F)F)c3)c3ccccc3n2)cc1 [4v, (E)-2-(4-methoxystyryl)-N-(4-nitro-3-(trifluoromethyl)phenyl)quinoline-4-carboxamide]	> 10	> 10	> 10	> 10	> 10				
	O=C(Nc1ccc([N+](=O)[O-])c(C(F)(F)F)c1)c1cc(/C=C/c2ccc(Cl)c(Cl)c2)nc2ccccc12 [4x, (E)-2-(3,4-dichlorostyryl)-N-(4-nitro-3-(trifluoromethyl)phenyl)quinoline-4-carboxamide]	> 10	> 10	> 10	> 10	> 10				
3.2 to 8.97	Cc1cccc(/C=C/c2cc(C(=O)Nc3ccc(C(F)(F)F)cc3)c3ccccc3n2)c1 [4y, (E)-2-(3-methylstyryl)-N-(4-(trifluoromethyl)phenyl)quinoline-4-carboxamide]	3.84 ± 0.22	7.84 ± 0.65	3.25 ± 0.23	3.2 ± 0.19	8.73 ± 0.74				
3.2 to 8.97	O=C(Nc1ccc(C(F)(F)F)cc1)c1cc(/C=C/c2ccc(Cl)cc2)nc2ccccc12 [4z, (E)-2-(4-chlorostyryl)-N-(4-(trifluoromethyl)phenyl)quinoline-4-carboxamide]	6.73 ± 1.15	> 10	4.77 ± 0.32	> 10	> 10				
	C[C@H](Nc1ncnc2[nH]cnc12)c1cc2ccc(F)cc2nc1-c1ccccn1 [ACP-319]						0.15	3	0.8	
	O=S(=O)(Nc1cccc2cccnc12)c1ccc(F)cc1 [CU-O47]								0.7	0.7

SMILES	IC50 [1] [µM]	IC50 (HD-MB03) [µM]	IC50 (MDA-MB-231) [µM]	IC50 (SU-DHL-8) [µM]	IC50 (RPMI-8402) [µM]	IC50 (A549) [µM]	IC50 (TMD8 (DLBCL)) [µM]	IC50 [2] [µM]	IC50 (Ly10 (DLBCL)) [µM]	IC50 (Ly1 (DLBCL)) [µM]
O=C(Nc1ccc([N+](=O)[O-])c(C(F)(F)F)c1)c1cc(/C=C/c2ccccc2)nc2ccccc12 [4j, (E)-N-(4-nitro-3-(trifluoromethyl)phenyl)-2-styrylquinoline-4-carboxamide]	3.2 to 8.97	8.23 ± 0.47	> 10	3.86 ± 0.44	> 10	> 10				
O=C(Nc1ccc([N+](=O)[O-])c(C(F)(F)F)c1)c1cc(/C=C/c2ccc(Cl)cc2)nc2ccccc12 [4w, (E)-2-(4-chlorostyryl)-N-(4-nitro-3-(trifluoromethyl)phenyl)quinoline-4-carboxamide]	3.2 to 8.97	> 10	> 10	8.25 ± 0.67	3.56 ± 0.44	> 10				
